This passage reports IC50 results from patent US20240327412A1, “FACTOR XIIA INHIBITORS” (KALVISTA PHARMACEUTICALS LIMITED, priority 2021, published 2024).

The experiment concerns the target T1, Human Factor XIIa (Homo sapiens, UniProt P00748).
T1 construct: Proteolytic cleavage of FXII to heavy and light chains of FXIIa dramatically increases catalytic activity; purchased Enzyme Research Laboratories
T1 sequence (P00748 373-615 limits assumed): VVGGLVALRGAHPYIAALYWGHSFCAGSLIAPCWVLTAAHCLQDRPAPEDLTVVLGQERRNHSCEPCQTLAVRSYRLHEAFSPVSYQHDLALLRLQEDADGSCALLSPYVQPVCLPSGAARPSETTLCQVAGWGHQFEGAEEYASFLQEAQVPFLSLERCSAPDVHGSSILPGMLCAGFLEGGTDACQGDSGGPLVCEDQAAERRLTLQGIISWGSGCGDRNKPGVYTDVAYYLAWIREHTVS
T1 sequence (P00748 20-372 partner limits assumed): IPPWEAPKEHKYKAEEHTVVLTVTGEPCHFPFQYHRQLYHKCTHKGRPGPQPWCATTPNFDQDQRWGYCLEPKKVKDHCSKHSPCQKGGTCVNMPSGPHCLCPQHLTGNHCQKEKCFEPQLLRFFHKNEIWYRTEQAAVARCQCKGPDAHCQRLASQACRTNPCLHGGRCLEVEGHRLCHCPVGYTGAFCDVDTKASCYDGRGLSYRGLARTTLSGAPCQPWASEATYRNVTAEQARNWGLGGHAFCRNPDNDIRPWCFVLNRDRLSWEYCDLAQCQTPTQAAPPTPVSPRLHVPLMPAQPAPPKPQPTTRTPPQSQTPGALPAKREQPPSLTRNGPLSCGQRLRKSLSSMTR
Briefly: Determination of FXIIa inhibition (fluorogenic substrate H-DPro-Phe-Arg-AFC, IC50 assay). It counts as biochemical. The conditions noted are these: substrate at Km concentration, 25° C.; category scale; read-out: Human FXII IC50 (nm). The method, boiled down: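 At substrate Km and 25° C., the rate of AFC release from H-DPro-Phe-Arg-AFC by human Factor XIIa was followed for 5 min across compound concentrations. Inhibition was derived as percent of uninhibited rate, giving IC50.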
As for `Cn1ccc(OCC23CN(C(=O)CCc4ccc(=O)[nH]c4)C(CNc4cccc5c(N)nccc45)(C2)C3)cc1=O` [Example 12054, 4-((1-(((1-aminoisoquinolin-5-yl)amino)methyl)-2-(3-(6-oxo-1,6-dihydropyridin-3-yl)propanoyl)-2-azabicyclo[2.1.1]hexan-4-yl)methoxy)-1-methylpyridin-2(1H)-one], the IC50 (commonly the concentration that gives 50% inhibition) lay within 10 to 100 nM. The figure for `Cn1ccc(OCC23CN(C(=O)Nc4ccccc4F)C(CNc4cccc5c(N)nccc45)(C2)C3)cc1=O` [Example 12068, 1-(((1-aminoisoquinolin-5-yl)amino)methyl)-N-(2-fluorophenyl)-4-(((1-methyl-2-oxo-1,2-dihydropyridin-4-yl)oxy)methyl)-2-azabicyclo[2.1.1]hexane-2-carboxamide] is 1 to 10 nM. For `Cc1cccc(OCC23CCOC(CNc4cccc5c(N)nccc45)(C2)C3)n1` [Example 10957, N5-((5-(((6-methylpyridin-2-yl)oxy)methyl)-2-oxabicyclo[3.1.1]heptan-1-yl)methyl)isoquinoline-1,5-diamine] the value was 3000 to 10000 nM.

Consider `Cn1ccc(OCC23CN(C(=O)Oc4ccccc4Cl)C(CNc4cccc5c(N)nccc45)(C2)C3)cc1=O` [Example 12015, 2-chlorophenyl 1-(((1-aminoisoquinolin-5-yl)amino)methyl)-4-(((1-methyl-2-oxo-1,2-dihydropyridin-4-yl)oxy)methyl)-2-azabicyclo[2.1.1]hexane-2-carboxylate], for which the IC50 lay in the range of 10 to 100 nM. For `Nc1nccc2c(NCC34CC(COc5ccc6nncn6n5)(CO3)C4)cccc12` [Example 6638, N5-((4-(([1,2,4]triazolo[4,3-b]pyridazin-6-yloxy)methyl)-2-oxabicyclo[2.1.1]hexan-1-yl)methyl)isoquinoline-1,5-diamine] the value was 1000 to 3000 nM; for `COc1ccc(C(=O)N2CC3(COc4ccn(C)c(=O)c4)CC2(CNc2cccc4c(N)nccc24)C3)cc1` [Example 12071, 4-((1-(((1-aminoisoquinolin-5-yl)amino)methyl)-2-(4-methoxybenzoyl)-2-azabicyclo[2.1.1]hexan-4-yl)methoxy)-1-methylpyridin-2(1H)-one], 10 to 100 nM. The figure for `Cn1ccc(OCC23CN(C(=O)CCc4cccc(C(F)(F)F)c4)C(CNc4cccc5c(N)nccc45)(C2)C3)cc1=O` [Example 12050, 4-((1-(((1-aminoisoquinolin-5-yl)amino)methyl)-2-(3-(3-(trifluoromethyl)phenyl)propanoyl)-2-azabicyclo[2.1.1]hexan-4-yl)methoxy)-1-methylpyridin-2(1H)-one] is 10 to 100 nM. Regarding `Cn1ccc(OCC23CC(CNc4cccc5c(N)nccc45)(CN2C(=O)OCc2ccccn2)C3)cc1=O` [Example 13013, pyridin-2-ylmethyl 4-(((1-aminoisoquinolin-5-yl)amino)methyl)-1-(((1-methyl-2-oxo-1,2-dihydropyridin-4-yl)oxy)methyl)-2-azabicyclo[2.1.1]hexane-2-carboxylate], the 50% inhibitory concentration (IC50) lay in the range of 100 to 300 nM.

With `Cn1ccc(OCC23CC(CNc4cccc5c(N)nccc45)(CN2C(=O)OCc2ccccc2Cl)C3)cc1=O` [Example 13020, 2-chlorobenzyl 4-(((1-aminoisoquinolin-5-yl)amino)methyl)-1-(((1-methyl-2-oxo-1,2-dihydropyridin-4-yl)oxy)methyl)-2-azabicyclo[2.1.1]hexane-2-carboxylate], the IC50 fell in the range of 10 to 100 nM.

In the case of `Cn1ccc(OCC23CN(C(=O)Cc4ccccc4)C(CNc4cccc5c(N)nccc45)(C2)C3)cc1=O` [Example 12028, 4-((1-(((1-aminoisoquinolin-5-yl)amino)methyl)-2-(2-phenylacetyl)-2-azabicyclo[2.1.1]hexan-4-yl)methoxy)-1-methylpyridin-2(1H)-one], the IC50 was 10 to 100 nM.

In the case of `Cn1ccc(OCC23CN(C(=O)CCc4cccc(Cl)c4)C(CNc4cccc5c(N)nccc45)(C2)C3)cc1=O` [Example 12049, 4-((1-(((1-aminoisoquinolin-5-yl)amino)methyl)-2-(3-(3-chlorophenyl)propanoyl)-2-azabicyclo[2.1.1]hexan-4-yl)methoxy)-1-methylpyridin-2(1H)-one], the IC50 was in the range of 10 to 100 nM. Consider `COc1cc(OCC23CCOC(CNc4cccc5c(N)nccc45)(C2)C3)ccn1` [Example 10944, N5-((5-(((2-methoxypyridin-4-yl)oxy)methyl)-2-oxabicyclo[3.1.1]heptan-1-yl)methyl)isoquinoline-1,5-diamine], for which the IC50 was 1000 to 3000 nM. Take `COc1cc(OCC23COC(CNc4cccc5c(N)nccc45)(C2)C3)cn2ccnc12` [Example 6631, N5-((4-(((8-methoxyimidazo[1,2-a]pyridin-6-yl)oxy)methyl)-2-oxabicyclo[2.1.1]hexan-1-yl)methyl)isoquinoline-1,5-diamine]: the IC50 is 100 to 300 nM.

With `Cn1ccc(OCC23CN(C(=O)OCc4ccc5ccccc5c4)C(CNc4cccc5c(N)nccc45)(C2)C3)cc1=O` [Example 12024, naphthalen-2-ylmethyl 1-(((1-aminoisoquinolin-5-yl)amino)methyl)-4-(((1-methyl-2-oxo-1,2-dihydropyridin-4-yl)oxy)methyl)-2-azabicyclo[2.1.1]hexane-2-carboxylate], the IC50 was 100 to 300 nM. For `Cn1ccc(OCC23CN(C(=O)NCc4ccccc4)C(CNc4c(F)ccc5c(N)nccc45)(C2)C3)cc1=O` [Example 12072, 1-(((1-amino-6-fluoroisoquinolin-5-yl)amino)methyl)-N-benzyl-4-(((1-methyl-2-oxo-1,2-dihydropyridin-4-yl)oxy)methyl)-2-azabicyclo[2.1.1]hexane-2-carboxamide] the value was 300 to 1000 nM; for `Nc1nccc2c(NCC34CC(COc5ccc6ncoc6c5)(CCO3)C4)cccc12` [Example 10973, N5-((5-((benzo[d]oxazol-6-yloxy)methyl)-2-oxabicyclo[3.1.1]heptan-1-yl)methyl)isoquinoline-1,5-diamine], 1000 to 3000 nM. For `Cn1ccc(OCC23CN(C(=O)CCc4cccc(C(F)F)c4)C(CNc4cccc5c(N)nccc45)(C2)C3)cc1=O` [Example 12048, 4-((1-(((1-aminoisoquinolin-5-yl)amino)methyl)-2-(3-(3-(difluoromethyl)phenyl)propanoyl)-2-azabicyclo[2.1.1]hexan-4-yl)methoxy)-1-methylpyridin-2(1H)-one] the value was 10 to 100 nM. For `Nc1nccc2c(NCC34CC(COc5ccccc5N5CCCC5=O)(CO3)C4)cccc12` [Example 6654, 1-(2-((1-(((1-aminoisoquinolin-5-yl)amino)methyl)-2-oxabicyclo[2.1.1]hexan-4-yl)methoxy)phenyl)pyrrolidin-2-one] the value was 10000 to 40000 nM. Take `Nc1nccc2c(NCC34CC(COc5ccn(C(F)F)c(=O)c5)(CCO3)C4)cccc12` [Example 10975, 4-((1-(((1-aminoisoquinolin-5-yl)amino)methyl)-2-oxabicyclo[3.1.1]heptan-5-yl)methoxy)-1-(difluoromethyl)pyridin-2(1H)-one]: the IC50 is 300 to 1000 nM. The figure for `Cn1ccc(OCC23CN(c4ccncc4)C(CNc4cccc5c(N)nccc45)(C2)C3)cc1=O` [Example 12065, 4-((1-(((1-aminoisoquinolin-5-yl)amino)methyl)-2-(pyridin-4-yl)-2-azabicyclo[2.1.1]hexan-4-yl)methoxy)-1-methylpyridin-2(1H)-one] is 1 to 10 nM; for `Nc1nccc2c(NCC34CC(COc5ccn6nncc6c5)(CCO3)C4)cccc12` [Example 10969, N5-((5-(([1,2,3]triazolo[1,5-a]pyridin-5-yloxy)methyl)-2-oxabicyclo[3.1.1]heptan-1-yl)methyl)isoquinoline-1,5-diamine] it is 1000 to 3000 nM. The figure for `Cn1ccc(OCC23CC(CNc4cccc5c(N)nccc45)(CN2C(=O)OCc2cccnc2)C3)cc1=O` [Example 13009, Pyridin-3-ylmethyl4-(((1-aminoisoquinolin-5-yl)amino)methyl)-1-(((1-methyl-2-oxo-1,2-dihydropyridin-4-yl)oxy)methyl)-2-azabicyclo[2.1.1]hexane-2-carboxylate] is 10 to 100 nM.

Turning to `Cn1ccc(OCC23CN(C(=O)CCc4cccc5ncccc45)C(CNc4cccc5c(N)nccc45)(C2)C3)cc1=O` [Example 12052, 4-((1-(((1-aminoisoquinolin-5-yl)amino)methyl)-2-(3-(quinolin-5-yl)propanoyl)-2-azabicyclo[2.1.1]hexan-4-yl)methoxy)-1-methylpyridin-2(1H)-one], the IC50 was in the range of 10 to 100 nM. The figure for `CC(C)c1cc(OCC23CCOC(CNc4cccc5c(N)nccc45)(C2)C3)cc(=O)n1C` [Example 10949, 4-((1-(((1-aminoisoquinolin-5-yl)amino)methyl)-2-oxabicyclo[3.1.1]heptan-5-yl)methoxy)-6-isopropyl-1-methylpyridin-2(1H)-one] is 300 to 1000 nM; for `CC(=O)N1CC2(CNc3cccc4c(N)nccc34)CC1(COc1ccn(C)c(=O)c1)C2` [Example 13003, 4-((2-acetyl-4-(((1-aminoisoquinolin-5-yl)amino)methyl)-2-azabicyclo[2.1.1]hexan-1-yl)methoxy)-1-methylpyridin-2(1H)-one] it is 100 to 300 nM.
